How the values were obtained:
blackgrass [1] = assay: Test Example 4: herbicidal effect by soil treatment (Table 19, symbol J); assay type: in vivo, blackgrass (Alopecurus myosuroides); details: amount of applied herbicide 320 g/ha
Method in brief: (§1)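 Soil-surface application: an emulsion agent diluted with water to the predetermined dose is sprayed uniformly over seeds lying under roughly 1.5 cm of sterilized diluvial soil. Boxes stay in a greenhouse at 25° C. to 30° C. Three weeks later, each species is graded on previously defined criteria.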

southern crabgrass [2] = assay: Test Example 5: herbicidal effect by foliage application, plastic box (Table 20, symbol F); assay type: in vivo, southern crabgrass (Digitaria ciliaris); details: foliage application, 320 g/ha, three weeks after application
Method in brief: (§2)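 Sow seeds spot-wise in sterilized diluvial soil; cover with ~1.5 cm soil. Grow 14 days in greenhouse, 25° C. to 30° C. Spray foliage with emulsion diluted to predetermined amount. Rate effect after 3 weeks.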

barnyard grass [3] = assay: Test Example 5: herbicidal effect by foliage application, plastic box (Table 20, symbol H); assay type: in vivo, barnyard grass (Echinochloa crus-galli); details: foliage application, 320 g/ha, three weeks after application
Method in brief: as §2

oval-leafed pondweed = assay: Test Example 1: herbicidal activity, application before weed generation under submerged conditions (Table 16, symbol C); assay type: in vivo, oval-leafed pondweed (Monochoria vaginalis); details: 320 g/ha applied herbicide
Method in brief: (§3)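 Alluvial soil was flooded to 4 cm depth, weed seeds were sown mixed and 2.5-leaf rice seedlings were transplanted. On sowing day, the compound's emulsion, diluted in water to a set dose, was applied to the water surface. Plants grew at 25–30 °C and were scored 0–5 after three weeks.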

lambsquarters [4] = assay: Test Example 5: herbicidal effect by foliage application, plastic box (Table 20, symbol O); assay type: in vivo, lambsquarters (Chenopodium album); details: foliage application, 320 g/ha, three weeks after application
Method in brief: as §2

Japanese bulrush = assay: Test Example 1: herbicidal activity, application before weed generation under submerged conditions (Table 16, symbol B); assay type: in vivo, Japanese bulrush (Schoenoplectus juncoides); details: 320 g/ha applied herbicide
Method in brief: as §3

rice flat sedge = assay: Test Example 3: herbicidal effect by foliage application, Wagner pot (Table 18, symbol E); assay type: in vivo, rice flat sedge (Cyperus iria); details: 320 g/ha
Method in brief: (§4)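 Plants were sown in alluvial soil held under 0.1–0.5 cm standing water and grown 14 days in a greenhouse at 25–30 °C. An emulsifiable formulation, water-diluted to the set dose, was then sprayed onto the foliage, and effects were scored three weeks later using previously defined criteria.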

wild oat [5] = assay: Test Example 4: herbicidal effect by soil treatment (Table 19, symbol I); assay type: in vivo, wild oat (Avena fatua); details: amount of applied herbicide 320 g/ha
Method in brief: as §1

barnyard grass [6] = assay: Test Example 3: herbicidal effect by foliage application, Wagner pot (Table 18, symbol H); assay type: in vivo, barnyard grass (Echinochloa crus-galli); details: 320 g/ha
Method in brief: as §4

windgrass [7] = assay: Test Example 4: herbicidal effect by soil treatment (Table 19, symbol L); assay type: in vivo, windgrass (Apera spica-venti); details: amount of applied herbicide 320 g/ha
Method in brief: as §1

chickweed [8] = assay: Test Example 4: herbicidal effect by soil treatment (Table 19, symbol P); assay type: in vivo, common chickweed (Stellaria media); details: amount of applied herbicide 320 g/ha
Method in brief: as §1

late watergrass = assay: Test Example 1: herbicidal activity, application before weed generation under submerged conditions (Table 16, symbol A); assay type: in vivo, late watergrass (Echinochloa oryzicola); details: 320 g/ha applied herbicide
Method in brief: as §3

blackgrass [9] = assay: Test Example 5: herbicidal effect by foliage application, plastic box (Table 20, symbol J); assay type: in vivo, blackgrass (Alopecurus myosuroides); details: foliage application, 320 g/ha, three weeks after application
Method in brief: as §2

green foxtail [10] = assay: Test Example 4: herbicidal effect by soil treatment (Table 19, symbol G); assay type: in vivo, green foxtail (Setaria viridis); details: amount of applied herbicide 320 g/ha
Method in brief: as §1

southern crabgrass [11] = assay: Test Example 4: herbicidal effect by soil treatment (Table 19, symbol F); assay type: in vivo, southern crabgrass (Digitaria ciliaris); details: amount of applied herbicide 320 g/ha
Method in brief: as §1

chickweed [12] = assay: Test Example 5: herbicidal effect by foliage application, plastic box (Table 20, symbol P); assay type: in vivo, common chickweed (Stellaria media); details: foliage application, 320 g/ha, three weeks after application
Method in brief: as §2

Italian ryegrass [13] = assay: Test Example 5: herbicidal effect by foliage application, plastic box (Table 20, symbol K); assay type: in vivo, Italian ryegrass (Lolium multiflorum); details: foliage application, 320 g/ha, three weeks after application
Method in brief: as §2

redroot pigweed [14] = assay: Test Example 4: herbicidal effect by soil treatment (Table 19, symbol N); assay type: in vivo, redroot pigweed (Amaranthus retroflexus); details: amount of applied herbicide 320 g/ha
Method in brief: as §1

velvetleaf [15] = assay: Test Example 4: herbicidal effect by soil treatment (Table 19, symbol M); assay type: in vivo, velvetleaf (Abutilon theophrasti); details: amount of applied herbicide 320 g/ha
Method in brief: as §1

persian speedwell [16] = assay: Test Example 4: herbicidal effect by soil treatment (Table 19, symbol R); assay type: in vivo, Persian speedwell (Veronica persica); details: amount of applied herbicide 320 g/ha
Method in brief: as §1

persian speedwell [17] = assay: Test Example 5: herbicidal effect by foliage application, plastic box (Table 20, symbol R); assay type: in vivo, Persian speedwell (Veronica persica); details: foliage application, 320 g/ha, three weeks after application
Method in brief: as §2

false cleavers [18] = assay: Test Example 5: herbicidal effect by foliage application, plastic box (Table 20, symbol Q); assay type: in vivo, false cleavers (Galium spurium); details: foliage application, 320 g/ha, three weeks after application
Method in brief: as §2

redroot pigweed [19] = assay: Test Example 5: herbicidal effect by foliage application, plastic box (Table 20, symbol N); assay type: in vivo, redroot pigweed (Amaranthus retroflexus); details: foliage application, 320 g/ha, three weeks after application
Method in brief: as §2

wild oat [20] = assay: Test Example 5: herbicidal effect by foliage application, plastic box (Table 20, symbol I); assay type: in vivo, wild oat (Avena fatua); details: foliage application, 320 g/ha, three weeks after application
Method in brief: as §2

lambsquarters [21] = assay: Test Example 4: herbicidal effect by soil treatment (Table 19, symbol O); assay type: in vivo, lambsquarters (Chenopodium album); details: amount of applied herbicide 320 g/ha
Method in brief: as §1

false cleavers [22] = assay: Test Example 4: herbicidal effect by soil treatment (Table 19, symbol Q); assay type: in vivo, false cleavers (Galium spurium); details: amount of applied herbicide 320 g/ha
Method in brief: as §1

Chinese sprangletop = assay: Test Example 3: herbicidal effect by foliage application, Wagner pot (Table 18, symbol D); assay type: in vivo, chinese sprangletop (Leptochloa chinensis); details: 320 g/ha
Method in brief: as §4

windgrass [23] = assay: Test Example 5: herbicidal effect by foliage application, plastic box (Table 20, symbol L); assay type: in vivo, windgrass (Apera spica-venti); details: foliage application, 320 g/ha, three weeks after application
Method in brief: as §2

Italian ryegrass [24] = assay: Test Example 4: herbicidal effect by soil treatment (Table 19, symbol K); assay type: in vivo, Italian ryegrass (Lolium multiflorum); details: amount of applied herbicide 320 g/ha
Method in brief: as §1

green foxtail [25] = assay: Test Example 5: herbicidal effect by foliage application, plastic box (Table 20, symbol G); assay type: in vivo, green foxtail (Setaria viridis); details: foliage application, 320 g/ha, three weeks after application
Method in brief: as §2

barnyard grass [26] = assay: Test Example 4: herbicidal effect by soil treatment (Table 19, symbol H); assay type: in vivo, barnyard grass (Echinochloa crus-galli); details: amount of applied herbicide 320 g/ha
Method in brief: as §1

velvetleaf [27] = assay: Test Example 5: herbicidal effect by foliage application, plastic box (Table 20, symbol M); assay type: in vivo, velvetleaf (Abutilon theophrasti); details: foliage application, 320 g/ha, three weeks after application
Method in brief: as §2

Structure (SMILES) | herbicidal effect rating, J: blackgrass (blackgrass [1]) | herbicidal effect grade, F: southern crabgrass (southern crabgrass [2]) | herbicidal effect grade, H: barnyard grass (barnyard grass [3]) | Herbicidal effect on C: oval-leafed pondweed (grade 0-5) (oval-leafed pondweed) | herbicidal effect grade, O: lambsquarters (lambsquarters [4]) | Herbicidal effect on B: Japanese bulrush (grade 0-5) (Japanese bulrush) | herbicidal effect on E (rice flat sedge), rating 0-5 (rice flat sedge) | herbicidal effect rating, I: wild oat (wild oat [5]) | herbicidal effect on H (barnyard grass), rating 0-5 (barnyard grass [6]) | herbicidal effect rating, L: windgrass (windgrass [7]) | herbicidal effect rating, P: chickweed (chickweed [8]) | Herbicidal effect on A: late watergrass (grade 0-5) (late watergrass) | herbicidal effect grade, J: blackgrass (blackgrass [9]) | herbicidal effect rating, G: green foxtail (green foxtail [10]) | herbicidal effect rating, F: southern crabgrass (southern crabgrass [11]) | herbicidal effect grade, P: chickweed (chickweed [12]) | herbicidal effect grade, K: Italian ryegrass (Italian ryegrass [13]) | herbicidal effect rating, N: redroot pigweed (redroot pigweed [14]) | herbicidal effect rating, M: velvetleaf (velvetleaf [15]) | herbicidal effect rating, R: persian speedwell (persian speedwell [16]) | further results
COc1ccc(F)c(-c2sc3ccccc3c2-c2c(O)c(C)nn(C)c2=O)c1 [1-053] | 0 (Herbicidal rate of 5% or less (almost no effect)) | 3 (Herbicidal rate of 40% or more and less than 70%) | 3 (Herbicidal rate of 40% or more and less than 70%) | 1 (Herbicidal rate of 5% or more and less than 20%) | 4 (Herbicidal rate of 70% or more and less than 90%) | 2 (Herbicidal rate of 20% or more and less than 40%) | 1 (Herbicidal rate of 5% or more and less than 20%) | 0 (Herbicidal rate of 5% or less (almost no effect)) | 3 (Herbicidal rate of 40% or more and less than 70%) | 0 (Herbicidal rate of 5% or less (almost no effect)) | 5 (Herbicidal rate of 90% or more (almost completely withered)) | 3 (Herbicidal rate of 40% or more and less than 70%) | 2 (Herbicidal rate of 20% or more and less than 40%) | 3 (Herbicidal rate of 40% or more and less than 70%) | 2 (Herbicidal rate of 20% or more and less than 40%) | 5 (Herbicidal rate of 90% or more (almost completely withered)) | 3 (Herbicidal rate of 40% or more and less than 70%) | 4 (Herbicidal rate of 70% or more and less than 90%) | 2 (Herbicidal rate of 20% or more and less than 40%) | 3 (Herbicidal rate of 40% or more and less than 70%) | herbicidal effect grade, R: persian speedwell (persian speedwell [17]): 5 (Herbicidal rate of 90% or more (almost completely withered)); herbicidal effect grade, Q: false cleavers (false cleavers [18]): 3 (Herbicidal rate of 40% or more and less than 70%); herbicidal effect grade, N: redroot pigweed (redroot pigweed [19]): 4 (Herbicidal rate of 70% or more and less than 90%); herbicidal effect grade, I: wild oat (wild oat [20]): 3 (Herbicidal rate of 40% or more and less than 70%); herbicidal effect rating, O: lambsquarters (lambsquarters [21]): 5 (Herbicidal rate of 90% or more (almost completely withered)); herbicidal effect rating, Q: false cleavers (false cleavers [22]): 0 (Herbicidal rate of 5% or less (almost no effect)); herbicidal effect on D (Chinese sprangletop), rating 0-5 (Chinese sprangletop): 0 (Herbicidal rate of 5% or less (almost no effect)); herbicidal effect grade, L: windgrass (windgrass [23]): 3 (Herbicidal rate of 40% or more and less than 70%); herbicidal effect rating, K: Italian ryegrass (Italian ryegrass [24]): 3 (Herbicidal rate of 40% or more and less than 70%); herbicidal effect grade, G: green foxtail (green foxtail [25]): 4 (Herbicidal rate of 70% or more and less than 90%); herbicidal effect rating, H: barnyard grass (barnyard grass [26]): 1 (Herbicidal rate of 5% or more and less than 20%); herbicidal effect grade, M: velvetleaf (velvetleaf [27]): 5 (Herbicidal rate of 90% or more (almost completely withered))
CCCC(=O)Oc1c(C)nn(C)c(=O)c1-c1c(-c2ccc(N(C)C)cc2)sc2ccccc12 [1-040] | 0 (Herbicidal rate of 5% or less (almost no effect)) | 4 (Herbicidal rate of 70% or more and less than 90%) | 3 (Herbicidal rate of 40% or more and less than 70%) | 1 (Herbicidal rate of 5% or more and less than 20%) | 4 (Herbicidal rate of 70% or more and less than 90%) | 3 (Herbicidal rate of 40% or more and less than 70%) | 5 (Herbicidal rate of 90% or more (almost completely withered)) | 0 (Herbicidal rate of 5% or less (almost no effect)) | 4 (Herbicidal rate of 70% or more and less than 90%) | 0 (Herbicidal rate of 5% or less (almost no effect)) | 0 (Herbicidal rate of 5% or less (almost no effect)) | 3 (Herbicidal rate of 40% or more and less than 70%) | 0 (Herbicidal rate of 5% or less (almost no effect)) | 0 (Herbicidal rate of 5% or less (almost no effect)) | 0 (Herbicidal rate of 5% or less (almost no effect)) | 5 (Herbicidal rate of 90% or more (almost completely withered)) | 4 (Herbicidal rate of 70% or more and less than 90%) | 0 (Herbicidal rate of 5% or less (almost no effect)) | 0 (Herbicidal rate of 5% or less (almost no effect)) | 0 (Herbicidal rate of 5% or less (almost no effect)) | herbicidal effect grade, R: persian speedwell (persian speedwell [17]): 5 (Herbicidal rate of 90% or more (almost completely withered)); herbicidal effect grade, Q: false cleavers (false cleavers [18]): 3 (Herbicidal rate of 40% or more and less than 70%); herbicidal effect grade, N: redroot pigweed (redroot pigweed [19]): 5 (Herbicidal rate of 90% or more (almost completely withered)); herbicidal effect grade, I: wild oat (wild oat [20]): 0 (Herbicidal rate of 5% or less (almost no effect)); herbicidal effect rating, O: lambsquarters (lambsquarters [21]): 0 (Herbicidal rate of 5% or less (almost no effect)); herbicidal effect rating, Q: false cleavers (false cleavers [22]): 0 (Herbicidal rate of 5% or less (almost no effect)); herbicidal effect on D (Chinese sprangletop), rating 0-5 (Chinese sprangletop): 3 (Herbicidal rate of 40% or more and less than 70%); herbicidal effect grade, L: windgrass (windgrass [23]): 0 (Herbicidal rate of 5% or less (almost no effect)); herbicidal effect rating, K: Italian ryegrass (Italian ryegrass [24]): 3 (Herbicidal rate of 40% or more and less than 70%); herbicidal effect grade, G: green foxtail (green foxtail [25]): 5 (Herbicidal rate of 90% or more (almost completely withered)); herbicidal effect rating, H: barnyard grass (barnyard grass [26]): 0 (Herbicidal rate of 5% or less (almost no effect)); herbicidal effect grade, M: velvetleaf (velvetleaf [27]): 5 (Herbicidal rate of 90% or more (almost completely withered))

Source: US20230085307A1, “PYRIDAZINONE COMPOUND AND HERBICIDE” (NISSAN CHEMICAL CORPORATION, priority 2019, published 2023)
